Measurements reported in patent US7462634B2, “N-(pyridin-2-yl)-sulfonamide derivatives” (Agouron Pharmaceuticals, Inc., priority 2005, dated 2008).

Tests used:
[1] = target: T1, human 11βHSD1 (Homo sapiens, UniProt P28845); assay: 11βHSD1 enzymatic assay (Kiapp determination); type: biochemical
Description: The 11βHSD1 assay was performed in a 100 mM Triethanolamine buffer pH 8.0, containing 200 mM NaCl, 0.02% n-dodecyl β-D-maltoside, 5% glycerol, 5 mM β-mercaptoethanol. A typical reaction for the determination of Kiapp values was carried at room temperature in a Corning® u-bottom 96-well plate and is described as follows: 11βHSD1 enzyme (5 nM, final concentration) was pre-incubated in the presence of the inhibitor and NADPH (500 μM, final concentration) for at least 30 minutes in the assay buffer. When pre-incubation was completed, the reaction was initiated by adding the regenerating system (2 mM Glucose-6-Phosphate, 1 U/mL Glucose-6-Phosphate dehydrogenase, and 6 mM MgCl2, all the concentration reported are final in the assay buffer), and 3H-cortisone (200 nM, final concentration). After 60 minutes, 60 μL of the assay mixture was transferred to a second 96-well plate and mixed with an equal volume of dimethylsulfoxide to stop the reaction. A 15 μL aliquot from the reaction mixture was loaded into a C-18 column (Polaris C18-A, 50×4.6 mm, 5μ, 180 Angstrom from Varian) connected to an automated High-throughput Liquid Chromatography instrument developed by Cohesive Technologies, commercially available from Franklin, Mass. USA, with a β-RAM model 3 Radio-HPLC detector from IN/US, commercially available from Tampa, Fla. USA. The substrate and product peaks were separated by using an isocratic mixture of 43:57 methanol to water (v/v) at a flow rate of 1.0 mL/min.
The initial reaction velocities were measured by stopping the reaction at 60 min and by measuring the area of product formation in the absence and the presence of various concentrations of inhibitors. The Kiapp values were determined using the equation for tight-binding inhibitor developed by Morrison, J F. (Morrison J F. Biochim Biophys Acta. 1969; 185: 269-86):
Where vi, and vo are the rates of cortisol formation in the presence and in the absence of inhibitor, respectively, I is the inhibitor concentration and E is the 11βHSD1 concentration in the assay buffer. All the concentrations reported are the final concentrations in the assay buffer
See also Morrison, J. F., “Kinetics of the reversible inhibition of enzyme-catalysed reactions by tight-binding inhibitors,” Biochim Biophys Acta., 1969; 185: 269-86.

[2] = target: T1, human 11βHSD1; assay: 11βHSD1 enzymatic assay, percentage of inhibition; type: biochemical; details: inhibitor at 0.1 uM
Description: Percentage of inhibition was determined in a 100 mM Triethanolamine buffer, pH 8.0, 200 mM NaCl, 0.02% n-dodecyl β-D-maltoside and 5mM β-ME. A typical reaction was carried on a Corning® u-bottom 96-well plate and is described as follows: 11βHSD1 enzyme (5 nM, final concentration) was pre-incubated in the presence of the inhibitor and NADPH (500 μM, final concentration) for at least 30 minutes in the assay buffer. When pre-incubation was completed, the reaction was initiated by adding the regenerating system (2 mM Glucose-6-Phosphate, 1 U/mL Glucose-6-Phosphate dehydrogenase, and 6 mM MgCl2, all the concentration reported are final in the assay buffer), and 3H-cortisone (200 nM, final concentration). After 60 minutes, 60 μL of the assay mixture was transferred to a second 96-well plate and mixed with an equal volume of dimethylsulfoxide to stop the reaction. A 15 μL aliquot from the reaction mixture was loaded into a C-18 column (Polaris C18-A, 50×4.6 mm, 5μ, 180 Angstrom from Varian) connected to an automated High-throughput Liquid Chromatography instrument developed by Cohesive Technologies commercially available from Franklin, Mass., with a β-RAM model 3 Radio-HPLC detector from IN/US commercially available from Tampa, Fla. The substrate and product peaks were separated by using an isocratic mixture of 43:57 methanol to water (v/v) at a flow rate of 1.0 mL/min.
Percent Inhibition was calculated based on the following equation: (100−(3H-Cortisol peak area with inhibitor/3Hcortisol peak area without inhibitor)×100).
[1,2-3H]-cortisone is commercially available from American Radiolabeled Chemicals Inc. of St. Louis, Mo. USA. NADPH while Glucose-6-Phosphate and Glucose-6-Phosphate dehydrogenase was purchased from Sigma®.

[3] = target: T1, human 11βHSD1; assay: Human Fa2N-4 immortalized cell-based assay (cortisol accumulation); details: Fa2N-4 human hepatocyte-derived cells, cortisol EIA, 5 μM cortisone, overnight
Description: Human Fa2N-4 Immortalized Cell-Based Assay
Fa2N4 is a cell line derived from human hepatocytes, developed by MultiCell Technologies, Inc. (U.S. Pat. No. 6,107,043), and commercialized by XenoTech LLC via an exclusive license. […] Inhibition of 11βHSD1 enzyme activity was assessed in this cell model by measuring decrease in cortisol (enzyme product) accumulation in cultures co-treated with cortisone (enzyme substrate) and the potential enzyme inhibitor. Cortisol signal was quantitatively determined in the supernatant of treated cells by means of the Correlate-Enzyme Immunoassay (EIA)™Cortisol kit (Assay Designs, Inc.).
Cells were plated in 96 Well Flat Bottom Collagen-coated Microplates, 20,000 cell/well, in 200 μl/well MFE™ (Multi-functional Enhancing—XenoTech, LLC) medium, containing antibiotics (penicillin-streptomycin) and supplemented with 10% of heat inactivated fetal bovine serum. Plates were incubated at 37° C., 5% CO2 overnight. The following day, and before addition of cortisone and inhibitor compounds, medium was changed to Hepatocyte Basal Medium (HBM—Cambrex Bio ScienceWalkersVille, Inc) containing only antibiotics. Thirty-minute pre-incubation with various concentrations of inhibitor compounds (20 μL/well), was followed by addition of 5 μM Cortisone (20 μL/well), and cells were incubated at 37° C., 5% CO2 overnight. At the end of the incubation, 100 μL of each supernatant was analyzed for cortisol content using the Cortisol-EIA kit from Assay Designs, following manufacturers' instructions. Plates were read on a plate reader (Spectra MAX PLUS—Molecular Devices Corporation) at 405 nm, with correction at 580 nm. All results were compared to 100% activation control, i.e. cells treated only with cortisone (no inhibitors added).

[4] = target: T1, human 11βHSD1; assay: HEK293-11βHSD1/GRE-Luciferase cell-based assay; parameters: expressed in transfected cells; details: HEK293 cells over-expressing human 11βHSD1, GRE-luciferase readout, cortisone substrate, 6 h; read-out: HEK EC50
Description: HEK293-11 βHSD1/GRE-Luciferase Cell-Based Assay
Inhibition of 11βHSD1 enzyme activity was also measured using human kidney HEK293 stable transfected cells, over-expressing human 11βHSD1, and a reporter plasmid containing DNA sequences for specific recognition of glucocorticoid-activated glucocorticoid receptors (GRE), using a method similar to that described in Bujalska et al, Human 11β-hydroxysteroid dehydrogenase: Studies on the stably transfected isoforms and localization of the type 2 isozyme within renal tissue, Steroids, 62(1), […], 77-82 . These sequences were fused to a luciferase reporter gene (Luc) allowing for quantification of 11 βHSD1 enzyme modulation. […] Cortisol (but not cortisone) binds and activates glucocorticoid receptors (GR), which will result in activation of luciferase and production of light (assay readout). A compound with the capability of inhibiting 11βHSD1 will reduce the luciferase signal, as compared to the cortisone control (enzyme substrate).
Cells were plated in 384 Well Flat Bottom White Polystyrene TC-Treated Microplates, at 20,000 cell/well at a volume of 40 μl/well, in serum-free DME Medium. Plates were incubated at 37° C., 5% CO2 overnight before addition of inhibitor compounds. Different concentrations of inhibitor compounds were added in 10% (v/v) dimethylsulfoxide (5 μL/well), followed by addition of 3 μM Cortisone (5 μL/well), and cells were incubated at 37° C. (5% CO2) for six hours. At the end of the incubation, 25 μL/well SteadyLite HTS were added and plates were incubated 10min at room temp on shaker. Plates were then read on Top Count using 384HSD1 program. The concentration of inhibitor compound causing 50% inhibition of light signal was determined via a custom made Excel Macro. All results were compared to 100% activation control, i.e. cells treated only with cortisone (no inhibitors added).

T1 sequence (P28845 whole entry): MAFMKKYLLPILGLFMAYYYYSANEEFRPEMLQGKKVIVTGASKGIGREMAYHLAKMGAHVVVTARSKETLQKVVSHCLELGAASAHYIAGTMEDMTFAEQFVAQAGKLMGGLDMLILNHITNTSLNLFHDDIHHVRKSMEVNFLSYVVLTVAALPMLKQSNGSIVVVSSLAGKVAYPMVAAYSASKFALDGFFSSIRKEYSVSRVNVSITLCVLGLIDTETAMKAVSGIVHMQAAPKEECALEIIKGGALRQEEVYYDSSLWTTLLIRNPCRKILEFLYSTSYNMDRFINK

Structure (SMILES)	Ki [1] [µM]	% inh @ 0.1 uM [2] [%]	EC50 [3] [µM]	EC50 [4] [µM]	inhibition at 0.1 µM [2] [%]
CC(O)c1cccc(NS(=O)(=O)c2ccc(-c3ccc(C#N)cc3)cc2)n1 (single isomer, unassigned; (+)) [2(+), (+)-4′-Cyano-N-[6-(1-hydroxyethyl)pyridin-2-yl]biphenyl4-sulfonamide]	0.019	85	0.056	0.16	–
CCC(O)c1cccc(NS(=O)(=O)c2ccc(-c3ccc(C#N)cc3)cc2)n1 (single isomer, unassigned; (+)) [3(+), (+)-4′-cyano-N-[6-(1-hydroxypropyl)pyridin-2-yl]biphenyl-4-sulfonamide]	0.00519	97.9	0.0116	0.0507	–
Cc1cc(-c2ccc(C#N)cc2)ccc1S(=O)(=O)Nc1cccc(C(C)O)n1 (single isomer, unassigned; (+)) [4(+), (+)4′-Cyano-N-[6-(1-hydroxyethyl)pyridin-2-yl]-3-methylbiphenyl4-sulfonamide]	0.0027	–	0.00786	0.0231	100
CC(O)c1cccc(NS(=O)(=O)c2ccc(-c3ccc(C#N)cc3)cc2)n1 (single isomer, unassigned; (-)) [2(−), (−)4′-Cyano-N-[6-(1-hydroxyethyl)pyridin-2-yl]biphenyl4-sulfonamide]	–	53	–	–	–
CCC(O)c1cccc(NS(=O)(=O)c2ccc(-c3ccc(C#N)cc3)cc2)n1 (single isomer, unassigned; (-)) [3(−), (−)4′-cyano-N-[6-(1-hydroxypropyl)pyridin-2-yl]biphenyl-4-sulfonamide]	–	59	–	–	–
Cc1cc(-c2ccc(C#N)cc2)ccc1S(=O)(=O)Nc1cccc(C(C)O)n1 (single isomer, unassigned; (-)) [4(−), (−)4′-Cyano-N-[6-(1-hydroxyethyl)pyridin-2-yl]-3-methylbiphenyl4-sulfonamide]	–	–	–	–	84
N#Cc1ccc(-c2ccc(S(=O)(=O)Nc3cccc(CCO)n3)cc2)cc1 [Comparative Example A, reference compound]	–	–	0.0777	0.423	–
Cc1cc(N)nc(NS(=O)(=O)c2sc(-c3ccc(C#N)cc3)nc2C)c1 [Example 1, N-(6-amino-4-methylpyridin-2-yl)-2-(4-cyanophenyl)-4-methyl-1,3-thiazole-5-sulfonamide]	0.0018	–	–	–	100
Cc1cc(S(=O)(=O)Nc2cccc(N)n2)c(F)cc1Cl [Example 5, N-(6-aminopyridin-2-yl)-4-chloro-2-fluoro-5-methylbenzenesulfonamide]	0.0097	–	–	–	93
Cc1cc(N)nc(NS(=O)(=O)c2cc(C)c(Cl)cc2F)c1 [Example 6, N-(6-amino-4-methylpyridin-2-yl)-4-chloro-2-fluoro-5-methylbenzenesulfonamide]	0.0028	–	–	–	98
CCCCOc1ccc(S(=O)(=O)Nc2cccc(N)n2)cc1 [Example 7, N-(6-aminopyridin-2-yl)-4-butoxybenzenesulfonamide]	0.0038	–	–	–	100
CCNc1cccc(NS(=O)(=O)c2ccc(-c3ccc(C#N)cc3)cc2)n1 [Example 8, 4′-cyano-N-[6-(ethylamino)pyridin-2-yl]biphenyl4-sulfonamide]	0.0048	–	–	–	88
N#Cc1ccc(-c2ccc(S(=O)(=O)Nc3cccc(CO)n3)cc2)cc1 [Example 9, 4′-cyano-N-[6-(hydroxymethyl)pyridin-2-yl]biphenyl-4-sulfonamide]	0.0028	–	0.0218	0.059	100
